We go through five compounds from patent US20240246963A1, “BIFUNCTIONAL COMPOUNDS AND PHARMACEUTICAL USES THEREOF” (RISEN (SUZHOU) PHARMA TECH CO., LTD., priority 2022, published 2024).

One series has as its target T1, RAS G12D protein (Homo sapiens, UniProt P01116, G12D).
T1 construct: host or cells: Aspc-1 (AsPC-1) cells
Description: Protein degradation study (western blot) in Aspc-1 cells. To be noted: for Dmax: ASPC1, G12D in Aspc-1 cells; for DC50: half-maximum degradation concentration on G12D in Aspc-1 cells; for percent protein degradation at 0.01 µM: 0.010 μM compound; for percent protein degradation at 0.1 µM: 0.1 μM compound. The format is cell-based. Put shortly:
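AsPC-1 cells treated 24 h at 37 °C with compounds (final DMSO 0.1%). RAS G12D protein measured by western blot of lysates and normalised to β-actin relative to DMSO. Degradation (%) = (1 − relative expression) × 100, binned into six categories from ≤10% to >75%.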

Series [1] is described as follows: Pharmacokinetics in male ICR mice. The format is in vivo. To be noted: mouse, plasma.
A further series has as its system AsPc-1 cells (G12D). Description: Cell proliferation study (Cell Titer Glo, 72 hours), AsPc-1. The format is cell-based. To be noted: Homo sapiens, ASPC1. As to the method:
(§1) Aspc-1(Cobioer, CBP60546), GP2D(Cobioer, CBP60683), Mia paca2 (Cobioer, CBP60136), NCI-H358 (Cobioer, CBP60544), H727 (Cobioer, CBP60182), MKN-1 (Cobioer, CBP60486), and PSN1 (Cobioer, CBP61215) cells in exponential growth phase were seeded into a 96-well plate (Greiner, 655090) at density of 3E3/well. Cells were cultured overnight at 37° C. with 5% CO2. On the next day, cells were treated with compound at various concentrations for 72 hours in 37° C., 5% CO2 incubator (final DMSO concentration was 0.1%). After treatment, 100 μL Cell Tier Glo (Promega, G7573) were added to every well on the cell plate and incubated at room temperature (RT) for 10 minutes. Cell growth status was measured with Cell Tier Glo (Promega, G7573) following manufacturer's directions. Inhibition level was calculated according to the following formula: […]
(§2) where the “Maximum Signal” are signal of wells containing DMSO without compound; the “Minimum Signal” are signal of wells recorded at Day 0 prior to commencement of the experiment; and the “Test compound signal” are signal of wells containing compound at established concentrations.
(§3) The inhibition curve was obtained with GraphPad 7.0 software using four-parameter equation.
A general note: In ATP-based viability assays light output follows the ATP content of the culture.

The next series concerns NCI-H358 cells (G12C). Description: Cell proliferation study (Cell Titer Glo, 72 hours), NCI-H358. The format is cell-based. To be noted: Homo sapiens. As for the experimental part:
as §1, §2, §3

A further series deals with NCI-H727 cells (G12V). Description: Cell proliferation study (Cell Titer Glo, 72 hours), NCI-H727. It is filed as cell-based. To be noted: Homo sapiens. As to the method:
as §1, §2, §3

For the next series, the system named is Mia paca2 cells (G12C). Description: Cell proliferation study (Cell Titer Glo, 72 hours), Mia paca2. To be noted: Homo sapiens, MIA PaCa-2. It is filed as cell-based. As to the method:
as §1, §2, §3

Another series has as its system MKN1 cells (WT). Description: Cell proliferation study (Cell Titer Glo, 72 hours), MKN1. It is filed as cell-based. To be noted: Homo sapiens, MKN-1. As for the experimental part:
as §1, §2, §3

The subject of another series is PSN-1 cells (G12R). Description: Cell proliferation study (Cell Titer Glo, 72 hours), PSN-1. The format is cell-based. To be noted: Homo sapiens, PSN1. As for the experimental part:
as §1, §2, §3

Another series deals with GP2D cells (G12D). Description: Cell proliferation study (Cell Titer Glo, 72 hours), GP2D. The format is cell-based. As to the method: as §1, §2, §3
For a further series, the system named is GP2D cells. Description: Tumor xenograft study (GP2D). The format is in vivo, Balb/c nude mice (Nu/Nu). As to the method: All studies were conducted in accordance with all applicable regulations and guidelines of the Institutional Animal Care and Use Committee (IACUC). Mice were maintained under pathogen-free conditions, and food and water were provided ad libitum. 6-8-week-old female, Balb/c nude mice (Nu/Nu) were injected subcutaneously with GP2D cells in 100 μL of PBS and Matrigel matrix in the right hind flank with 5×10^6 cells 50:50 cells: Matrigel. Mouse health was monitored daily, and caliper measurements began when tumors were palpable. Tumor volume measurements were determined utilizing the formula 0.5×L×W^2 in which L refers to length and W refers to width of each tumor. When tumors reached an average tumor volume of ˜200 mm^3, mice were randomized into treatment groups. The animals were divided into at least five mice per group. Mice were treated with test compound. Animals were monitored daily, and body weights and tumors were measured twice per week. “TGI” means tumor growth inhibition value.

The mark [2] stands for this setting: ASPC1, 24 h, Aspc-1 cells, 24 hours, read-out: Rate of protein degradation (%).

T1 sequence (P01116 1-188 isoform P01116-2 G12D): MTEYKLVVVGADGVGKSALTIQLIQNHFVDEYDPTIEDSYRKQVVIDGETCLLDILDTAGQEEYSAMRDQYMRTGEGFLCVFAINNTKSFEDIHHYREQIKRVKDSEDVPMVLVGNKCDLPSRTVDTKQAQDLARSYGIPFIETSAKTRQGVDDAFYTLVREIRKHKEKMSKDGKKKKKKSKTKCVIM

The term Dmax denotes the greatest extent of degradation seen. High values mean a fuller loss of target, low ones a partial loss of target. What is called DC50 is the concentration giving 50% degradation. High values mean degradation only at high concentration, low ones degradation at low concentration. In general, AUC(0-t) refers to the area under the concentration-time curve up to a stated or last time point. Read a low AUC(0-t) as low exposure. A word on the half-life: it is how long it takes for the measured level to halve. Lower therefore signals fast loss. In general, IC50 refers to the point on the concentration scale where inhibition reaches its midpoint. `CCc1c(F)ccc2cc(O)cc(-c3ncc4c(N5CCC[C@@](C)(O)C5)nc(OCC5(CN6CCC7(CC6)CC(N6CCC(c8ccc9c%10c(cccc8%10)C(=O)N9C8CCC(=O)NC8=O)CC6)C7)CC5)nc4c3F)c12` (stereo partly shown) [Compound 137]: on RAS G12D protein, the Dmax stood at 62% and the DC50 is under 1 nM. Besides, in series [1] (IV (3 mg/kg)), the AUC(0-t) is 1.28 µg·h/mL and the half-life is 7.97 h. Inhibition in the series with AsPc-1 cells (G12D) was half-maximal at 65.6 nM (IC50). This compound registered an IC50 in the series with NCI-H358 cells (G12C) of 438 nM. In the series on NCI-H727 cells (G12V), this compound displayed a 50% inhibitory concentration (IC50) of 0.46 nM.
As for `CCc1c(F)ccc2cc(O)cc(-c3ncc4c(N5CCC[C@@](C)(O)C5)nc(OCC5(CN6CCC(CN7CCC(c8ccc9c(C%10CCC(=O)NC%10=O)nn(C)c9c8)CC7)CC6)CC5)nc4c3F)c12` (stereo partly shown) [Compound 101], on RAS G12D protein (setting [2]), the percent protein degradation at 0.01 µM is 70 to 75%. At RAS G12D protein (setting [2]), the percent protein degradation at 0.1 µM fell in the range of 70 to 75%. Further, the DC50 on RAS G12D protein is 1 to 10 nM. In addition, the IC50 in the series with Mia paca2 cells (G12C) worked out at 9.51 nM; with MKN1 cells (WT), 409 nM; with PSN-1 cells (G12R), 463 nM; with AsPc-1 cells (G12D), 109 nM; in the series on NCI-H358 cells (G12C), 23.9 nM; with NCI-H727 cells (G12V) it was 16.4 nM. Also, in the series on GP2D cells (G12D), the IC50 turned out to be 0.214 nM.
On to `CCc1c(F)ccc2cc(O)cc(-c3ncc4c(N5CCC[C@@](C)(O)C5)nc(OCC5(CN6CCC(C(=O)N7CCC8(CC7)CC(N7CCC(c9ccc%10c(C%11CCC(=O)NC%11=O)nn(C)c%10c9)CC7)C8)CC6)CC5)nc4c3F)c12` (stereo partly shown) [Compound 85], for which the percent protein degradation at 0.01 µM at RAS G12D protein (setting [2]) lay within 60 to 70%. In addition, the percent protein degradation at 0.1 µM at RAS G12D protein (setting [2]) was in the range of 60 to 70%. This compound came in with a DC50 at RAS G12D protein of 1 to 10 nM. For the same compound, the IC50 in the series with MKN1 cells (WT) stood at 405 nM; in the series on PSN-1 cells (G12R), 488 nM; in the series with AsPc-1 cells (G12D), 488 nM; in the series on NCI-H727 cells (G12V), 2.46 nM; in the series on GP2D cells (G12D), 242 nM.
Consider `CCc1c(F)ccc2cc(O)cc(-c3ncc4c(N5CCC[C@]6(CCO6)C5)nc(OCC5(CN6CCC7(CC6)CC(N6CCC(c8cc9c(cc8F)c(N8CCC(=O)NC8=O)nn9C)CC6)C7)CC5)nc4c3F)c12` [Compound 202], for which the percent protein degradation at 0.005 µM at RAS G12D protein (ASPC1, 24 h, 0.005 μM compound, Aspc-1 cells, 24 hours, read-out: Rate of protein degradation (%)) was over 75%. On RAS G12D protein, the Dmax worked out at 81%. The compound further displayed a DC50 at RAS G12D protein of 1 to 10 nM. The IC50 stood at 7.83 nM in the series with AsPc-1 cells (G12D), 17.1 nM with NCI-H358 cells (G12C), 3.61 nM with NCI-H727 cells (G12V) and 0.06 nM in the series on GP2D cells (G12D). Besides, the “TGI (%)” value in the series with GP2D cells (PO, 30 mg/kg, bid, 14 days) is recorded as 75.8%.
On to `CCc1c(F)ccc2cc(O)cc(-c3ncc4c(N5CCC[C@@](C)(O)C5)nc(OCC5(CN6CCC7(CC6)CC(N6CCC(c8ccc9c(C%10CCC(=O)NC%10=O)nn(C)c9c8)CC6)C7)CC5)nc4c3F)c12` (stereo partly shown) [Compound 86], for which, on RAS G12D protein (setting [2]), the percent protein degradation at 0.01 µM was over 75%. For the same compound, at RAS G12D protein (setting [2]), the percent protein degradation at 0.1 µM is over 75%. Also, the Dmax on RAS G12D protein worked out at 78%. The compound also displayed a DC50 on RAS G12D protein of 1 to 10 nM. The IC50 was found to be 3.38 nM with Mia paca2 cells (G12C); 400 nM with MKN1 cells (WT); 459 nM in the series with PSN-1 cells (G12R); 15.6 nM in the series on AsPc-1 cells (G12D); 17.6 nM in the series on NCI-H358 cells (G12C); 2.45 nM in the series on NCI-H727 cells (G12V). Inhibition in the series on GP2D cells (G12D) was half-maximal at 0.158 nM (IC50). In addition, the AUC(0-t) worked out at 1.33 µg·h/mL in series [1] (IV (3 mg/kg)) and 0.103 µg·h/mL in series [1] (PO (10 mg/kg)). The half-life in series [1] (IV (3 mg/kg)) was 14.3 h; in [1] (PO (10 mg/kg)), 6.52 h. For the same compound, the “TGI (%)” value in the series on GP2D cells (IP, 10 mg/kg, q3d, 21 days) was 75.8%.
